A word on the AC50: it is the concentration giving half of the maximal activity seen. What is called IC90 is the concentration at which the effect reaches the 90% level.

Data on eight compounds can be found in ChEMBL document CHEMBL1201862, “PubChem BioAssay data set” (2004).

In one assay the test system is HEK293. Put plainly: viability loss in HEK293T cells – cell-based, ATP luminescence, cherry-pick samples, cytotoxicity control, dose response (AID 687005).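 Note: cells exposed to compound for 48 hours.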 It counts as functional. The note with it: Homo sapiens.
A short description of assay [1]: HEK293 Cytotoxicity Assay Measured in Cell-Based System Using Plate Reader - 7071-01_Inhibitor_Dose_CherryPick_Activity_Set2. It counts as functional.
The nature of assay [2]: inhibitors acting on PAX2 in cells – cell-based, plate reader, dry powder samples, selectivity assay for PAX8 inhibitor project, dose response (AID 743048).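 Note: HEK293 cells carrying a WT1 promoter luciferase reporter driven by expressed Pax2; potency is for inhibition of Pax2 driven reporter signal.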 The class given is functional.
The nature of assay [3]: PAX8-dependent cell viability loss – plate reader, dry powder, dose response (AID 743049). The class given is functional, cell-based.
The target in another assay is Paired box protein Pax-8 (Homo sapiens, UniProt Q06710). Put plainly: PAX8 transcriptional activity inhibition in RMG-I – RMG-I cells, luciferase, cherry-pick, dose response (AID 687027).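 Note: luciferase reporter driven by Pax8 target thyroperoxidase promoter measured by SteadyGlo luminescence.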 It counts as functional, cell-based.
Assay [4] is described as follows: inhibitors of non-replicating M. tuberculosis, dose response, luciferase, dry powder (AID 651620). The class given is functional. The note with it: Mycobacterium tuberculosis.
Assay [5] is described as follows: inhibitors of non-replicating M. tuberculosis, dose response, luciferase, dry powder (AID 651619). The class given is functional. The note with it: Mycobacterium tuberculosis.
A short description of assay [6]: growth inhibition of replicating M. tuberculosis, dose response, counter-screen, dry powder, IC90 (AID 651617). The class given is functional. The note with it: Mycobacterium tuberculosis.
The nature of assay [7]: liver cell line viability loss – HepG2, luminescence plate reader, powder samples, set 2, cytotoxicity control, dose response (AID 651860). The class given is functional, cell-based.
For assay [8], the target named is Endoplasmic reticulum aminopeptidase 1 (Homo sapiens, UniProt Q9NZ08). Put plainly: inhibition of human ERAP1 enzyme activity – biochemical, cherry-pick, set 2, plate reader, dose response (AID 743314).
A short description of assay [9]: HepG2 hepatoma cell viability loss – plate reader, dry powder, cytotoxicity control, dose response (AID 651947). The class given is functional, cell-based.
Assay [10] is described as follows: CTGF mRNA reduction in DLD1 cells – cell-based, DLD1 colon cancer, RT-qPCR, cherry-pick, dose response (AID 1053122). The note with it: Cancer cell lines. The class given is functional. For orientation: In qPCR the cycle at which signal appears reflects the starting amount.
Assay [11] in a line: YAP1 overexpression rescue of CTGF inhibition – DLD1 cells, RT-qPCR, cherry-pick, mechanism study for YAP1 pathway inhibitor project, dose response (AID 1053127). The class given is functional, cell-based. The note with it: DLD-1.
The nature of assay [12]: viability loss in A549 lung cells – cell-based, 24 h, CellTiter-Glo luminescence, cherry-picks, cytotoxicity control, dose response (AID 1053115). It counts as functional. The note with it: A549, 24 h. For orientation: In ATP-based viability assays light output follows the ATP content of the culture.

The source made the active and inactive calls.

Paired box protein Pax-8, sequence (Q06710 whole entry): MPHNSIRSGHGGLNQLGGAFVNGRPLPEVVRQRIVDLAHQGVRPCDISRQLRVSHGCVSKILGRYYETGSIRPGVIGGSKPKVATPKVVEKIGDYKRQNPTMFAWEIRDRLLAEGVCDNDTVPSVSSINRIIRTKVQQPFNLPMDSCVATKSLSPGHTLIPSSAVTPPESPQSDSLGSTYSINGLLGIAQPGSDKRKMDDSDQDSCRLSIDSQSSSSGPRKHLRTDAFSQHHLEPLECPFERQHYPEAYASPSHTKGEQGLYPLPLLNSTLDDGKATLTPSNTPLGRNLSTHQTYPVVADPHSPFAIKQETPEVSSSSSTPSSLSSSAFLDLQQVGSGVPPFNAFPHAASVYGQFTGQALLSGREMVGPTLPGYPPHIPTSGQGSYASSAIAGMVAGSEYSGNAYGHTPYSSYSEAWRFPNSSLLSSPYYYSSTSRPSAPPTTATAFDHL
Endoplasmic reticulum aminopeptidase 1, sequence (Q9NZ08 whole entry): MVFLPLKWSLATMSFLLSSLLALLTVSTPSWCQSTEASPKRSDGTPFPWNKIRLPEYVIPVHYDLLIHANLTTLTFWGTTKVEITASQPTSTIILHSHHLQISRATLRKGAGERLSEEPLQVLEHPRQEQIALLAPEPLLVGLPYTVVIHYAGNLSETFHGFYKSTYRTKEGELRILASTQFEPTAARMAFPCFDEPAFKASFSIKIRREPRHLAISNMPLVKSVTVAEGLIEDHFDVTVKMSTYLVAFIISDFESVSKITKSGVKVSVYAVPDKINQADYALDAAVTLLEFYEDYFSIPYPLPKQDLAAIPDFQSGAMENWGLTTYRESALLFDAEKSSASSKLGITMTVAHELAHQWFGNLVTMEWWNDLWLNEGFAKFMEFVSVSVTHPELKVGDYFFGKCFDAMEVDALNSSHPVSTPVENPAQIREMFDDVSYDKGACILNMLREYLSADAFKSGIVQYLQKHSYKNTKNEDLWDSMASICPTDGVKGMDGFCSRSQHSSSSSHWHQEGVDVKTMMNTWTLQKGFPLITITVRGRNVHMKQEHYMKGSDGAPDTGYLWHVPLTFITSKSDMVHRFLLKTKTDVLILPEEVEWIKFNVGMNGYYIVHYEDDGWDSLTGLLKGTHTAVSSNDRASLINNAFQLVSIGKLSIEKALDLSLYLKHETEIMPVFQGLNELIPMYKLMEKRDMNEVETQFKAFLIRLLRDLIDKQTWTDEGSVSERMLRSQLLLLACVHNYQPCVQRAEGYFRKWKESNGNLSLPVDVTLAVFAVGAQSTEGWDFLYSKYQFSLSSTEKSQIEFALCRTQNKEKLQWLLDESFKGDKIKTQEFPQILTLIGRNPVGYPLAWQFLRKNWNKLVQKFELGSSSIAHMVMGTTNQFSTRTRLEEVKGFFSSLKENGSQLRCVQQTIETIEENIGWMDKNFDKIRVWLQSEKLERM

As to `COc1ccc(S(=O)(=O)N[C@@H]2C=C[C@@H](CC(=O)N3CCC(Cc4ccccc4)CC3)O[C@H]2CO)cc1`, the AC50 (in the assay on HEK293; in [1]) was 19.9 µM (active) in each case.

In the case of `C[C@H](CO)N1C[C@H](C)[C@@H](CN(C)Cc2ccc(-c3ccccc3)cc2)Oc2ccc(NC(=O)C3CC3)cc2CC1=O`, the figures for the AC50 (in [2]; in [3]; at Paired box protein Pax-8) were > 70 µM (inactive), > 70 µM (inactive) and 26.1 µM (active), respectively.

In the case of `c1ccc(Cn2cc(CSc3nnc(C4CCC4)o3)nn2)cc1`, the IC90 in assay [4] was 4 µM (active); in assay [5], 4 µM (active); in [6], 250 µM (active).

Turning to `O=C(O)[C@H]1CCCC[C@H]1C(=O)N1CCc2ccccc2C1CCN1C(=O)c2ccccc2C1=O` (some centres undefined), the AC50 in [7] was > 52 µM (inactive).

Take `C[C@H](CO)N1C[C@H](C)[C@H](CN(C)Cc2ccc(C(=O)O)cc2)Oc2ccc(NC(=O)Nc3cccc4ccccc34)cc2CC1=O`: the AC50 in assay [8] was 21.1 µM (active).

For `c1ccc(CSc2nnc(-c3cscn3)o2)cc1`, the AC50 in assay [9] is 34.4 µM (active).

With `C[C@@H]1C/C=C/C[C@H](c2ccc(F)cc2)NC(=O)[C@@H](Cc2ccccc2)N(C)C(=O)c2ccccc2O1.C[C@@H]1C/C=C\C[C@H](c2ccc(F)cc2)NC(=O)[C@@H](Cc2ccccc2)N(C)C(=O)c2ccccc2O1`, the AC50 in [10] was 4.01 µM (active); in assay [11], 20.9 µM (active).

Take `CN1c2ccc(-c3ccc(C#N)cc3)cc2[C@H]2[C@H](CCN2C(=O)C2CCCCC2)[C@@H]1CO`: the AC50 in [12] was 36.2 µM (active).
